From ChEMBL document CHEMBL1177693, “Antimalarials from nature” (Bioorg Med Chem, 2009) come the findings set out here.

Each structure is given as a SMILES string. ≈ marks a conversion by molar mass, not a printed value.

One experiment relates to Plasmodium falciparum. Kind of experiment: Antimalarial activity against Plasmodium falciparum. The format is functional, organism-based.
Conditions: not given
Turning to `C=C(COCc1ccc(Br)cc1)[C@@H]1CC[C@]2(C)CC[C@]3(C)[C@H](CC[C@@H]4[C@@]5(C)CC[C@H](OC(=O)CCCCCCC(N)=O)C(C)(C)[C@@H]5CC[C@]43C)[C@@H]12`, the “fold change (FC)” value is 7.

The experiment is the same for the next values; noted with them: Plasmodium falciparum.
For `CC(C)=CCc1cc(/C=C/C(=O)c2cc(CC=C(C)C)c(O)cc2O)ccc1O` [STIPULIN], the IC50 turned out to be 5.13 µM. This lies in the single-digit micromolar range. `C/C1=C\[C@H]2O[C@](C)(CC[C@@H]2[C@@]2(C)CO2)[C@@H](O)CC/C(C)=C/CC1`: the IC50 worked out at 15 µg/mL. Consider `C[C@@H]1CC[C@H]2C(C)(C)[C@H](O)CC[C@]2(C)[C@@]12Cc1c(O)cc3c(c1O2)COC3=O`, for which it took 0.15 µg/mL to reach half-maximal inhibition (IC50).

`CC1=CC(=O)[C@@H](O)[C@]2(C)[C@H]3[C@]4(O)OC[C@@]35[C@@H](C[C@@H]12)OC(=O)[C@H](O)[C@@]5(O)[C@@]1(CO1)[C@H]4O` [PASAKBUMIN B] registered a 50% inhibitory concentration (IC50) of 0.0226 µg/mL. `COc1cc2c(cc1O)CCN(C)[C@H]2Cc1ccc(Oc2c3c(cc(OC)c2OC)-c2c(OC)c(OC)c(O)c4c2[C@@H](C3)N(C)CC4)cc1`: the concentration for half-maximal inhibition (IC50) turned out to be 0.0242 µg/mL. On to `COc1c2c(cc(O)c1-c1cc(-c3ccc4c(-c5c(O)cc(O)c6c5C[C@@H](C)N[C@@H]6C)c(C)cc(OC)c4c3O)c(O)c3c(OC)cc(C)cc13)C[C@@H](C)N=C2C` [KORUNDAMINE A], for which half-maximal inhibition (IC50) was put at 1.1 µg/mL. Against the preceding compound, the IC50 is about 45-fold higher. Still for that read-out and setting: for `CCCCCCCCCCCCCCCC1CC(=O)NCCCNCCCCNCCCN1` (stereo not given) [BUDMUNCHIAMINE L5] the value was 15 µM; for `CC(=O)O[C@@H]1C(=O)c2c(O)cc(O)cc2O[C@@H]1c1ccc(O)cc1`, 24.3 µg/mL. On the same count and under the same terms, next, `C=C1C(=O)[C@@]23CC[C@H]4[C@@]5(C)CCC[C@@]4(OC5=O)[C@@]2(C)CC[C@]1(O)C3`: 0.67 µg/mL. `O=C1OC(O)C(Br)=C1Br` (stereo not given) [MUCOBROMIC ACID] came in with an IC50 of 0.359 µg/mL. The same measure, in the same setting: next, `Cc1cc(O)c2c(c1)[C@H]([C@H]1O[C@H](OC(=O)c3ccccc3)[C@@H](O)[C@@H](O)[C@@H]1O)c1cccc(O)c1C2=O` [UVEOSIDE]: 2.4 µM; `C=C1C(=O)O[C@@H]2/C=C(/CO)C3=CC(=O)[C@@](C)(C[C@@H](OC(=O)/C(C)=C\C)[C@@H]12)O3`: 0.3 µg/mL. Take `C[C@H]1[C@H](O)CCC2=CC(=O)[C@@]3([C@@]4(CO)CO4)O[C@@H]3[C@@]21C`: a half-maximal response (EC50) required 0.5 µg/mL (≈ 1.78 µM). In turn, `CC1(C)CC[C@]2(C(=O)O)CC[C@]3(C)C(=CC[C@@H]4[C@@]5(C)CC[C@@H](O)C(C)(C)[C@@H]5CC[C@]43C)[C@@H]2C1` displayed an IC50 of 28.3 µM. That is a double-digit micromolar value. Regarding `CC1(C)C(=O)CC[C@]2(C)[C@H]3CC(O)[C@@H]4[C@@]5(C)CC[C@](O)(C(C)(C)O)[C@H]5[C@@H](O[C@H]5OC[C@@H](O)[C@@H](O)[C@@H]5O)C[C@@]4(C)[C@]3(C)CC[C@@H]12` (mixture of isomers) [GLINOSIDE A], the IC50 was found to be 42.3 µg/mL. The same measure, in the same setting: for `C=C(C)C(=O)O[C@@H]1C[C@@]2(C)OC(=CC2=O)/C(CO)=C\[C@H]2OC(=O)C(=C)[C@@H]21` the value was 1.2 µg/mL; for `COC1=C(OC)C(=O)C([C@H]2COc3c(cc(OC)c(OC)c3OC)C2)=CC1=O` [ABRUQUINONE B], 1.5 µg/mL. `Cc1c(O)cc2c3c1OC(C)(C)CC3c1ccc(O)c(O)c1CC2` (stereo not drawn) [DEMETHYLRACEMOSOL] displayed a 50% effective concentration (EC50) of 2 µg/mL (≈ 6.13 µM). `O=C1c2ccc(O)cc2O[C@H](c2ccc(O)cc2)[C@H]1[C@@H]1C(=O)c2ccc(O)cc2O[C@H]1c1ccc(O)cc1` registered an IC50 of 6.7 µM. The same measure, in the same setting: next, `C=C1C2CC[C@@]3(C)[C@H](c4ccoc4)OC(=O)C[C@]13O[C@H]1CC(=O)C(C)(C)[C@H](CC(=O)OC)[C@@]21C`: 5.9 µg/mL; `CC1=CC(=O)C[C@@H]2[C@@](C)(CC[C@H](C)CC(=O)O)[C@H](C)C(=O)C[C@@]12C`: 4.3 µg/mL. The same measure, in the same setting: next, `O=C1OC(O)C(Cl)=C1Cl` (stereo not given) [MUCOCHLORIC ACID]: 0.137 µg/mL; `C/C(=C\[C@@H](O)[C@H](O)[C@@H](C)C1=CC[C@@]2(C)C[C@@H]3[C@H](C)CC[C@@H]3/C(C(=O)O)=C\C[C@H]12)C(=O)O` [HALOROSELLINIC ACID]: 13 µg/mL; `C=C[C@@]12COC(=O)C(=C)[C@@H]1[C@H]1OC(=O)[C@@H](C)[C@@H]1[C@@H](OC(=O)C(=C)CO)C2`: 1.1 µg/mL. With `C=C1C(=O)[C@@]23CC[C@H]4[C@@]5(C)CCC[C@@]4(OC5=O)[C@@]2(C)CC[C@@H]1C3`, the IC50 is 1.57 µg/mL. The same measure, in the same setting: next, `CO[C@H]1[C@@H](O)[C@H](O[C@H]2[C@@H](OC)C[C@H](O[C@H]3[C@@H](OC)C[C@@H](O[C@H]4CC[C@@]5(C)C(=CC[C@@H]6[C@@H]5C[C@@H](OC(=O)c5ccccc5)[C@]5(C)[C@@H]([C@H](C)OC(C)=O)CC[C@]65O)C4)O[C@@H]3C)O[C@@H]2C)O[C@H](C)[C@H]1O`: 6.25 µg/mL; `C[C@@]12C=CC(=O)[C@@]3(C)[C@H]1[C@@H](OC2)[C@@H](OC(=O)c1ccccc1)[C@@]1(C)C2=CC[C@@H](C4=CC(O)OC4=O)[C@]2(C)C[C@@H]2O[C@]231` (mixture of isomers) [TRICHIRUBINE B]: 0.2 µg/mL; `CC1(C)C=Cc2c(ccc(C(=O)/C=C/c3ccc(O)cc3)c2O)O1`: 3.36 µM. On the same count and under the same terms, next, `CC[C@H](C)[C@@H]([C@@H](CC(=O)N1CCC[C@H]1[C@H](OC)[C@@H](C)C(=O)N[C@@H](Cc1ccccc1)c1nccs1)OC)N(C)C(=O)[C@@H](NC(=O)[C@H](C(C)C)N(C)C)C(C)C` [DOLASTATIN-10]: 0.0001 µM.

In a further experiment the test system is Plasmodium falciparum. The experiment is described as follows: Antimalarial activity against Plasmodium falciparum K1. Format: functional, organism-based.
Conditions: not given
`CC(C)[C@@H]1OC(=O)[C@@H](Cc2ccccc2)N(C)C(=O)[C@H](C(C)C)OC(=O)[C@@H](Cc2ccccc2)N(C)C(=O)[C@H](C(C)C)OC(=O)[C@@H](Cc2ccccc2)N(C)C1=O` [BEAUVERICIN] gave an EC50 of 1.6 µg/mL (≈ 2.04 µM). Regarding `C[C@H]1C/C=C/[C@@H](O)[C@@H](O)CC/C=C/c2cc(O)cc(O)c2C(=O)O1` [AIGIALOMYCIN D], the IC50 is 6.6 µg/mL. Still for that read-out and setting: next, `COc1ccc2c3c1O[C@H]1C[C@@H](O)C=C[C@@]31CCN(C)C2` [GALANTAMINE]: 4.38 µg/mL. Consider `COC(=O)C[C@H]1[C@]2(C)C3=C(C)[C@H](c4ccoc4)C[C@H]3O[C@@H]2[C@@H]2OC(=O)[C@]3(C)C=CC(=O)[C@@]1(C)[C@@H]23` [NIMBOLIDE], for which the EC50 was determined as 0.00095 µg/mL (≈ 0.00204 µM).

For `CO[C@@H]1C=C[C@@]23c4cc5c(cc4CO[C@]2(O)CN(C)[C@H]3C1)OCO5` [TAZETTINE], the IC50 stood at 5.42 µg/mL. Consider `COc1c(OCCCN(C)C)cc2oc3cc(O)c(CC=C(C)C)c(O)c3c(=O)c2c1CC=C(C)C`, for which the IC50 was below 1 µM. In the case of `CCN(CC)CCOc1cc2oc3cc(O)c(CC=C(C)C)c(O)c3c(=O)c2c(CC=C(C)C)c1OC`, the IC50 was below 1 µM. The same measure, in the same setting: next, `CCN(CC)CC(O)COc1cc2oc3cc(O)c(CC=C(C)C)c(O)c3c(=O)c2c(CC=C(C)C)c1OC` (stereo not given): below 1 µM. In the case of `CC[C@H](C)[C@H]1OC(=O)[C@H](Cc2ccccc2)N(C)C(=O)[C@@H](C(C)C)OC(=O)[C@H](Cc2ccccc2)N(C)C(=O)[C@@H](C(C)C)OC(=O)[C@H](Cc2ccccc2)N(C)C1=O` [BEAUVERICIN A], the response was half-maximal at 12 µg/mL (≈ 15 µM) (EC50).

In another experiment the test system is Plasmodium falciparum. Kind of experiment: Antimalarial activity against Plasmodium falciparum W2. The format is functional, organism-based.
Conditions: not given
Turning to `COc1ccc2cc1Oc1ccc(cc1)C[C@H]1c3c(cc4c(c3Oc3cc5c(cc3OC)CCN(C)[C@@H]5C2)OCO4)CCN1C` [CEPHARANTHINE], it took 0.61 µM to reach half-maximal inhibition (IC50).
